Patent publication US20240261294A1, “METHOD FOR TREATING IDH INHIBITOR-RESISTANT SUBJECTS” (Eli Lilly and Company, priority 2021, published 2024)
Substitutions are numbered along the chain they refer to. Where two headings read alike, the source gives them in different places.

How the values were obtained:
IDH2 R172W_P167R cis = target: T1, IDH2 R172W_P167R cis (Homo sapiens, UniProt P48735, P167R/R172W); assay: Inhibition of 2-HG production in IDH2 mutant U-87 MG cells; assay type: cell-based; details: read-out: Relative IC50 (nM) Mean, inhibition of 2-HG production
T1 construct: expressed in transfected cells; host or cells: U-87 MG
T1 sequence (P48735 40-452 P167R/R172W): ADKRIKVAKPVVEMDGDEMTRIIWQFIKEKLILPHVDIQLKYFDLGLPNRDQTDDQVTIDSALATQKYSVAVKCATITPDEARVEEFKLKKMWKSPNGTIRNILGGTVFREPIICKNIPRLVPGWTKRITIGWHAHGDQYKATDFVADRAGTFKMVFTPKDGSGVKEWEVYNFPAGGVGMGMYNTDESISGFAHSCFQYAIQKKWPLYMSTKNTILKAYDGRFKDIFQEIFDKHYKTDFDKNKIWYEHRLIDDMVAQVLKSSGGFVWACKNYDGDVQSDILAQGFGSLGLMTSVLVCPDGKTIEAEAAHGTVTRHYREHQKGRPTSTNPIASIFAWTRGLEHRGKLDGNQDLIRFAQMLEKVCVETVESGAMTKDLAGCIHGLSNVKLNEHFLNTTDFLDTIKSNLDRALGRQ
Protocol: (§1) Compounds and Formulation. Compound A may be synthesized as described in WO/18/111707. Compound A is prepared as a 20 mM stock in 100% DMSO (dimethyl sulfoxide) (Sigma, D2438) and diluted serially in 100% DMSO to achieve the desired concentrations. DMSO preparations are further diluted with cell culture media prior to addition in the assay.
(§2) Cell lines. U-87 MG cells (ATCC, HTB-14) are cultured and assayed in MEM (Gibco, 11095) with 2 mM GlutaMAX (Gibco, 35050), 1 mM Pyruvate (Gibco, 11360), 0.1 mM NEAA ((Non-essential amino acid) Gibco, 11140) and 10% dialyzed FBS (Fetal bovine serum) (Gibco, 26400).
(§3) Cell-based inhibition assays. Cell-based assays are performed by measuring 2-HG in U-87 MG cells in which IDH2 mutations are expressed.
(§4) DNA constructs encoding IDH2 mutations are introduced into U-87 MG cells using transfection (Promega FuGENE HD, E2311) or lentiviral transduction, and the IDH2-mutant expressing cell lines are selected using blasticidin (5 μg/ml) or puromycin (1 μg/ml). Second site mutations (Q316E, I319M, P167R, and G260A) are evaluated in cis (same monomer as driver mutation within dimer) or in trans (opposite monomer from driver mutation in dimer). For compound treatments, 12,500 or 50,000 cells per well in culture medium (150 μl or 100 μl, respectively) are plated in 96 well cell culture plates (Falcon, 353377) 2 hrs prior to treatment. Cells are treated with serial dilutions of compound A in standard growth media. Plates are incubated in a mammalian cell culture incubator (humidified, 37° C., 5% CO2) for 16 or 72 hrs. Following the incubation period, the media is aspirated and cell extracts are prepared by addition of ice-cold 80% methanol/20% water (100 μL) containing liquid chromatography-mass spectrometry (LC-MS) internal standards (1 μM ^13C4 α-KG and ^13C5 2-HG) per well for ion pairing LC-MS method. 96-well sample plates are then sealed, shaken at 450 rpm for 10 min, and then placed at −20° C. and stored until LC-MS analysis.
(§5) LC-MS metabolite analysis of conditioned media and cell lysates. The effect of inhibitors on the concentrations of 2-HG are determined by LC-MS analysis of cell lysates using an ion-pairing method as described below.
(§6) Calibration curves are prepared by spiking 2-HG and α-KG into 80% methanol/20% water containing LC-MS internal standards (1 μM ^13C4 α-KG and 1 μM ^13C5 2-HG). The quantitation of 2-HG and α-KG is accomplished using an AB Sciex 6500 mass spectrometer with an Electrospray Ionization (ESI) probe and interfaced with an Ultra Performance Liquid Chromatography (UHPLC) system in the negative multiple-reaction monitoring (MRM) mode. The UHPLC system consists of an Agilent 1290 binary pump, thermostatted column compartment (TCC), and sampler. The injection volume is 1 μL for cell culture extracts. The extracts are chromatographically resolved using a Hypercarb column, 2.1×20 mm, […] Javelin HTS (Thermo Scientific, PN: 35005-022135). Mobile phase A is water/10 mM tributylamine/15 mM acetic acid. Mobile phase B is acetonitrile/20 mM tributylamine/30 mM acetic acid. The solvent flow rate is 1.0 mL/min. The isocratic condition is kept at 26% mobile phase B. The valve, sample loop, and needle are washed with 50% acetonitrile: 50% methanol for 20 seconds. The column temperature is kept at 55° C. Calibration curves are calculated by least-square linear regression with 1/x weighting. 2-HG and α-KG are quantified using standard curve and ratio of the peak area of analytes to internal standard. Data analysis is performed using MultiQuant 3.0 (AB Sciex). The raw data are exported to Microsoft Excel spreadsheets.
(§7) Determination of IC50 Curves. IC50 curves for each compound are obtained using four parameter data fitting analysis in GraphPad/Prism software.

IDH2 R140Q_P167R cis = target: T2, IDH2 R140Q_P167R cis (Homo sapiens, UniProt P48735, P167R/R140Q); assay: as above; assay type: cell-based; details: read-out: Relative IC50 (nM) Mean, inhibition of 2-HG production
T2 construct: expressed in transfected cells; host or cells: U-87 MG
T2 sequence (P48735 40-452 R140Q/P167R): T1 sequence (P48735 40-452 P167R/R172W) with R101Q, W133R
Protocol: as §1, §2, §3, §4, §5, §6, §7

[1] = 16 hours incubation, 50K cells/well, 100 μl media/well
[2] = 72 hours incubation, 12.5K cells/well

- IC50 (IDH2 R172W_P167R cis; [1]): 1280 nM
- IC50 (IDH2 R172W_P167R cis; [2]): 535 nM
- IC50 (IDH2 R140Q_P167R cis; [1]): 639 nM
- IC50 (IDH2 R140Q_P167R cis; [2]): 104 nM
Structure (SMILES): C=CC(=O)N1CCN([C@@H](CC2CC2)c2ccc([C@H](C)Nc3ncc4c(n3)N(CC)C(=O)OC4)cc2)CC1 [Compound A, 7-[[(1S)-1-[4-[(1S)-2-cyclopropyl-1-(4-prop-2-enoylpiperazin-1-yl)ethyl]phenyl]ethyl]amino]-1-ethyl-4H-pyrimido[4,5-d][1,3]oxazin-2-one]
